According to patent US10316035B2, “Triazolopyridine inhibitors of myeloperoxidase” (BRISTOL-MYERS SQUIBB COMPANY, priority 2015, dated 2019):
pIC50: −log10 of the molar value.

What follows are compounds tested against T1, myeloperoxidase (MPO) (Homo sapiens, UniProt P05164) (assay: MPO peroxidation assay (Amplex Red assay)). Conditions: not given.
T1 sequence (P05164 49-745): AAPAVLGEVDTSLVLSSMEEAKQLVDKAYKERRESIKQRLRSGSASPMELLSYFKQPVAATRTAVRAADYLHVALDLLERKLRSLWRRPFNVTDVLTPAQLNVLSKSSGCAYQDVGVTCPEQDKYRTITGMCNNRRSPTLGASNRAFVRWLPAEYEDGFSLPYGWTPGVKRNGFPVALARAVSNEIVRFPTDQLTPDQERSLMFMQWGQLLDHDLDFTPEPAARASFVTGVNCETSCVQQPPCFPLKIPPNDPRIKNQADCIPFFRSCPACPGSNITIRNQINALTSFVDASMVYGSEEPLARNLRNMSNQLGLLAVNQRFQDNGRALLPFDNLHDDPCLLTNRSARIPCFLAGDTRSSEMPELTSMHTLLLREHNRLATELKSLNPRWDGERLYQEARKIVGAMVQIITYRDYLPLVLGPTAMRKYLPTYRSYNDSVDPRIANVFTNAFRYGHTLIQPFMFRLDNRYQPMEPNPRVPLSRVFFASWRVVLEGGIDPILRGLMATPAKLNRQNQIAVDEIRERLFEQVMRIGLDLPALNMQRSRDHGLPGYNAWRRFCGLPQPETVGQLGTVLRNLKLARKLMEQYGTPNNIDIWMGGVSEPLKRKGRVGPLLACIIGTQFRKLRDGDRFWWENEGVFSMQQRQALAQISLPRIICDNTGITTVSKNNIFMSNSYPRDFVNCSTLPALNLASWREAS
Type: biochemical
Protocol: MPO Peroxidation Assay (Amplex Red Assay)
MPO peroxidation activity was measured in 100 mM KPi (pH 7.4) by utilizing the non-fluorescent reagent Amplex Red (Invitrogen catalog # A12222) which can be oxidized to the highly fluorescent resorufin. Amplex Red is oxidized by the peroxidase action of MPO to resorufin. Reactions were carried out in 50 μL total volume by adding a 25 μL mixture of 200 pM myeloperoxidase and 40 nM H2O2(Sigma #349887) to 100 nL inhibitor in 100% DMSO in a 384 well Perkin Elmer Optiplate. Enzyme and compound were preincubated for ten minutes at room temperature.
After the ten minute preincubation, 25 μL of an Amplex Red mixture containing 200 μM Amplex Red and 10 mM H2O2 was added to the plate. Kinetic determinations were carried out immediately on a Perkin Elmer Envision (15 minute kinetic read, Ex: 535 nm, Em: 590 nm).
IC50 values were calculated by determining the slope of the linear portion of the kinetic trace ([…]), and using that calculated slope to determine % inhibition occurring at each concentration of inhibitor using the following equation:
[formula] where A=minimal Y value (activity level of inhibited sample), B=maximal Y value (activity level of uninhibited sample), C=Log IC50, D=Hill Slope, x=concentration of inhibitor. MPO Chlorination Assay (APF Assay)

pIC50, 7.00 to 9.00:
Nc1cc(OCc2ccccc2F)c2nn[nH]c2n1 [Example 55, 7-(2-Fluorobenzyloxy)-3H-[1,2,3]triazolo[4,5-b]pyridin-5-amine]
Cc1c(COc2cc(N)nc3[nH]nnc23)cccc1-c1cccc(F)c1 [Example 68, 7-((3′-Fluoro-2-methylbiphenyl-3-yl)methoxy)-3H-[1,2,3]triazolo[4,5-b]pyridin-5-amine]
Nc1cc(OCc2cc(-c3cccc(F)c3)ccc2Cl)c2nn[nH]c2n1 [Example 70, 7-((4-Chloro-3′-fluorobiphenyl-3-yl)methoxy)-3H-[1,2,3]triazolo[4,5-b]pyridin-5-amine]
Cn1cc(-c2cccc(COc3cc(N)nc4[nH]nnc34)c2)cn1 [Example 77, 7-(3-(1-Methyl-1H-pyrazol-4-yl)benzyloxy)-3H-[1,2,3]triazolo[4,5-b]pyridin-5-amine]
Cc1c(COc2cc(N)nc3[nH]nnc23)cccc1-c1ccn(C)n1 [Example 81, 7-(2-Methyl-3-(1-methyl-1H-pyrazol-3-yl)benzyloxy)-3H-[1,2,3]triazolo[4,5-b]pyridin-5-amine]

Same assay, conditions: MPO peroxidation, potency range class; read-out: Amplex Red IC50

pIC50, 5.00 to 6.00:
COc1ccc(-n2cnc(C)n2)cc1COc1cc(N)nc2[nH]nnc12 [Example 87, 7-(2-Methoxy-5-(3-methyl-1H-1,2,4-triazol-1-yl)benzyloxy)-3H-[1,2,3]triazolo[4,5-b]pyridin-5-amine]

pIC50, 7.00 to 9.00:
Nc1cc(OCc2cc(C(=O)NC3CC3)ccc2F)c2nn[nH]c2n1 [Example 48, 3-((5-Amino-3H-[1,2,3]triazolo[4,5-b]pyridin-7-yloxy)methyl)-N-cyclopropyl-4-fluorobenzamide]
Nc1cc(OCc2cc(C(=O)Nc3cccc(Cl)c3)ccc2F)c2nn[nH]c2n1 [Example 49, 3-((5-Amino-3H-[1,2,3]triazolo[4,5-b]pyridin-7-yloxy)methyl)-N-(3-chlorophenyl)-4-fluorobenzamide]
COc1ccc(Br)cc1COc1cc(N)nc2[nH]nnc12 [Example 58, 7-(5-Bromo-2-methoxybenzyloxy)-3H-[1,2,3]triazolo[4,5-b]pyridin-5-amine]
COc1c(Br)cccc1COc1cc(N)nc2[nH]nnc12 [Example 59, 7-(3-Bromo-2-methoxybenzyloxy)-3H-[1,2,3]triazolo[4,5-b]pyridin-5-amine]
Cc1c(Br)cccc1COc1cc(N)nc2[nH]nnc12 [Example 60, 7-(3-Bromo-2-methylbenzyloxy)-3H-[1,2,3]triazolo[4,5-b]pyridin-5-amine]
Nc1cc(OCc2cccc(Br)c2F)c2nn[nH]c2n1 [Example 62, 7-(3-Bromo-2-fluorobenzyloxy)-3H-[1,2,3]triazolo[4,5-b]pyridin-5-amine]
Cc1c(COc2cc(N)nc3[nH]nnc23)cccc1-c1cncc(F)c1 [Example 63, 7-(3-(5-Fluoropyridin-3-yl)-2-methylbenzyloxy)-3H-[1,2,3]triazolo[4,5-b]pyridin-5-amine]
Cc1ccc(-c2cccc(F)c2)cc1COc1cc(N)nc2[nH]nnc12 [Example 65, 7-((3′-Fluoro-4-methylbiphenyl-3-yl)methoxy)-3H-[1,2,3]triazolo[4,5-b]pyridin-5-amine]
COc1ccc(-c2cccc(F)c2)cc1COc1cc(N)nc2[nH]nnc12 [Example 66, 7-((3′-Fluoro-4-methoxybiphenyl-3-yl)methoxy)-3H-[1,2,3]triazolo[4,5-b]pyridin-5-amine]
Cc1c(COc2cc(N)nc3[nH]nnc23)cccc1-c1ccccc1 [Example 69, 7-((2-Methylbiphenyl-3-yl)methoxy)-3H-[1,2,3]triazolo[4,5-b]pyridin-5-amine]
Nc1cc(OCc2cc(-c3cccc(F)c3)ccc2F)c2nn[nH]c2n1 [Example 71, 7-((3′,4-Difluorobiphenyl-3-yl)methoxy)-3H-[1,2,3]triazolo[4,5-b]pyridin-5-amine]
Nc1cc(OCc2cccc(-c3cccc(F)c3)c2F)c2nn[nH]c2n1 [Example 72, 7-((2,3′-Difluorobiphenyl-3-yl)methoxy)-3H-[1,2,3]triazolo[4,5-b]pyridin-5-amine]
COc1ccccc1-c1ccc(F)c(COc2cc(N)nc3[nH]nnc23)c1F [Example 73, 7-((2,4-Difluoro-2′-methoxybiphenyl-3-yl)methoxy)-3H-[1,2,3]triazolo[4,5-b]pyridin-5-amine]
Nc1cc(OCc2cccc(-c3cnn(Cc4ccccc4)c3)c2)c2nn[nH]c2n1 [Example 74, 7-(3-(1-Benzyl-1H-pyrazol-4-yl)benzyloxy)-3H-[1,2,3]triazolo[4,5-b]pyridin-5-amine]
Cn1nccc1-c1cccc(COc2cc(N)nc3[nH]nnc23)c1 [Example 78, 7-(3-(1-Methyl-1H-pyrazol-5-yl)benzyloxy)-3H-[1,2,3]triazolo[4,5-b]pyridin-5-amine]
CC(C)Cn1cc(-c2ccc(F)c(COc3cc(N)nc4[nH]nnc34)c2)cn1 [Example 82, 7-(2-Fluoro-5-(1-isobutyl-1H-pyrazol-4-yl)benzyloxy)-3H-[1,2,3]triazolo[4,5-b]pyridin-5-amine]
COc1ccc(-n2cncn2)cc1COc1cc(N)nc2[nH]nnc12 [Example 83, 7-(2-Methoxy-5-(1H-1,2,4-triazol-1-yl)benzyloxy)-3H-[1,2,3]triazolo[4,5-b]pyridin-5-amine]
Cc1c(COc2cc(N)nc3[nH]nnc23)cccc1-n1cncn1 [Example 86, 7-(2-Methyl-3-(1H-1,2,4-triazol-1-yl)benzyloxy)-3H-[1,2,3]triazolo[4,5-b]pyridin-5-amine]
CCOc1ccc(Cl)cc1COc1cc(N)nc2[nH]nnc12 [Example 88, 7-(5-Chloro-2-ethoxybenzyloxy)-3H-[1,2,3]triazolo[4,5-b]pyridin-5-amine]

pIC50, 6.00 to 7.00:
Nc1cc(OCC2CCc3ccccc3C2)c2nn[nH]c2n1 (centres unmarked) [Example 51, 7-((1,2,3,4-Tetrahydronaphthalen-2-yl)methoxy)-3H-[1,2,3]triazolo[4,5-b]pyridin-5-amine]
CC1CC(c2ccccc2)CCC1COc1cc(N)nc2[nH]nnc12 (centres unmarked) [Example 53, 7-((2-Methyl-4-phenylcyclohexyl)methoxy)-3H-[1,2,3]triazolo[4,5-b]pyridin-5-amine]
NC(=O)c1cccc(COc2cc(N)nc3[nH]nnc23)c1 [Example 56, 3-((5-Amino-3H-[1,2,3]triazolo[4,5-b]pyridin-7-yloxy)methyl)benzamide]
COc1ccc(-c2cccc(COc3cc(N)nc4[nH]nnc34)c2)c(F)c1 [Example 64, 7-((2′-Fluoro-4′-methoxybiphenyl-3-yl)methoxy)-3H-[1,2,3]triazolo[4,5-b]pyridin-5-amine]
COc1c(COc2cc(N)nc3[nH]nnc23)cccc1-c1cccc(F)c1 [Example 67, 7-((3′-Fluoro-2-methoxybiphenyl-3-yl)methoxy)-3H-[1,2,3]triazolo[4,5-b]pyridin-5-amine]
Nc1cc(OCc2cccc(-c3ccn(Cc4ccccc4)n3)c2)c2nn[nH]c2n1 [Example 75, 7-(3-(1-Benzyl-1H-pyrazol-3-yl)benzyloxy)-3H-[1,2,3]triazolo[4,5-b]pyridin-5-amine]
Cn1nc(C(F)(F)F)cc1-c1cccc(COc2cc(N)nc3[nH]nnc23)c1 [Example 79, 7-(3-(1-Methyl-3-(trifluoromethyl)-1H-pyrazol-5-yl)benzyloxy)-3H-[1,2,3]triazolo[4,5-b]pyridin-5-amine]
COc1c(COc2cc(N)nc3[nH]nnc23)cccc1-c1ccn(C)n1 [Example 80, 7-(2-Methoxy-3-(1-methyl-1H-pyrazol-3-yl)benzyloxy)-3H-[1,2,3]triazolo[4,5-b]pyridin-5-amine]
Cc1cn(-c2cccc(COc3cc(N)nc4[nH]nnc34)c2)cn1 [Example 84, 7-(3-(4-Methyl-1H-imidazol-1-yl)benzyloxy)-3H-[1,2,3]triazolo[4,5-b]pyridin-5-amine]
Cc1ccn(-c2cccc(COc3cc(N)nc4[nH]nnc34)c2)n1 [Example 85, 7-(3-(3-Methyl-1H-pyrazol-1-yl)benzyloxy)-3H-[1,2,3]triazolo[4,5-b]pyridin-5-amine]
